Measurements: patent publication USRE46907E1, “Suppression of cancer growth and metastasis using nordihydroguaiaretic acid derivatives with metabolic modulators” (THE JOHNS HOPKINS UNIVERSITY, priority 2008, dated 2018)
Peptide text beside a SMILES is read from it. * marks the point of attachment. Cbz = O=C(OCc1ccccc1)*; CH2F = FC*

Columns and labels:
[1] = system: PKCδ; assay: Western blotting of total PKCδ and phosphor-PKCδ (Thr505) in 67NR cells; assay type: cell-based, mouse; details: 5 hrs, M4N 80 μM, Ro 5 μM, Ly 20 μM, Des 150 μM
Protocol: (§1) The sample volumes were adjusted by the total protein amount. Protein assay was performed by Bio-Rad Protein Assay (Bio-Rad Laboratories, Inc. Hercules, Calif.). The samples were resolved by the standard SDS-polyacrylamide gel electrophoresis and transferred to nitrocellulose membrane (Amersham Biosciences, Bjorkgatan, Sweden). The membranes were blocked with skim milk, and incubated with primary antibodies at 4° C. overnight and then with secondary antibody conjugated with horse radish peroxidase at room temperature for 2 hrs. The signals were detected by western blot chemiluminescence reagent plus (New England Nuclear Life Science Products, Boston, Mass.).

[2] = system: HIF; assay: Western blotting of HIF in 67NR cells; assay type: cell-based, mouse; details: 5 hrs
Protocol: (§2) Western blotting: After cells had been grown in […] flasks and treated with reagents, the cells were washed with PBS (−) three times and suspended in RIP A buffer (150 mM NaCl, 50 mM Tris-HCl (pH 8,0), 0.1% SDS, 1% NP40, and 0.5% deoxycholate) supplemented with protease inhibitor cocktail (Calbiochem, San Diego, Calif.). The sample volumes were adjusted by the total protein amount. Protein assay was performed by Bio-Rad Protein Assay (Bio-Rad Laboratories, Inc. Hercules, Calif.). The samples were resolved by the standard SDS-polyacrylamide gel electrophoresis and transferred to nitrocellulose membrane (Amersham Biosciences, Bjorkgatan, Sweden). The membranes were blocked with skim milk, and incubated with primary antibodies at 4° C. overnight and then with secondary antibody conjugated with horse radish peroxidase at room temperature for 2 hrs. The signals were detected by western blot chemiluminescence reagent plus (New England Nuclear Life Science Products, Boston, Mass.).

[3] = system: PKCδ; assay: Western blotting of total PKCδ and phosphor-PKCδ (Thr505) in 4T1 cells; assay type: cell-based, mouse; details: 4T1, 5 hrs; M4N 80 μM, Ro 5 μM, Ly 20 μM, Des 150 μM
Protocol: as §1

[4] = system: 67NR cells; assay: TUNEL apoptosis assay in 67NR cells; assay type: cell-based, mouse
Protocol: (§3) Cell Culture Either cell line 4T1 or 67NR was a gift from Dr. Miller (20). The cells were cultured in RPMI1640 medium supplemented with glucose (14 mM), pyruvate (1 mM), penicillin (100 units/ml), streptomycin (100 μg/ml), and fetal bovine serum (10%), buffered with 25 mM HEPES (pH 7.4). LNCaP human prostate cancer cell line was purchased from American Type Culture Collection (Manassas, Va.). The cell line was cultured in RPMI1640 medium supplemented with glucose (14 mM), pyruvate (1 mM), penicillin (100 units/ml), streptomycin (100 μg/ml), and fetal bovine serum (10%). Drugs were dissolved in dimethyl sulfoxide (DMSO) at a suitable concentration so that the final concentration of DMSO in the medium was less than 0.1%.
(§4) Apoptosis assay: Simple TLTNEL assay was conducted by using TUNEL apoptosis detection kit (Upstate, Temecula, Calif.) with some modification. For the evaluation of the effect of PKCδ wild type and dominant negative vectors on TUNEL-positive cell death, we first transfected 4T1 or 67NR cells with these vectors by effectene (Qiagen, Valencia, Calif.). Wild type PKCδ vector is constructed from wild type PKCδ gene and pEGFP (Promega, Madison, Wis.). Dominant negative PKCδ vector is constructed from PKCδ gene mutated at a 376th amino acid residue (threonine) and pEGFP (Promega, Madison, Wis.) This threonine residue is located in ATP-binding domain of protein kinase Cδ, and therefore essential for any kinase reaction of the protein so that this mutant protein supposedly function as dominant negative. As a control we used pEGFP-N3 vector was used. These vectors contain green fluorescent protein (GFP) gene to be used as a transfection marker. The vectors are kind gifts from Dr. Yuspa (National Institutes of Health, Bethesda, Md.) (88). Twenty four hours after transfection, the cells were treated with M4N, Rottlerin, or Ly294002. Then 24 hrs after this treatment with these reagents, the cells were fixed with 10% formaldehyde in phosphate buffered saline without calcium and magnesium (PBS (−)). The cells were then incubated with rabbit anti-GFP antibody (MBL International, Woburn, Mass.) followed by treatment with anti-rabbit IgG antibody conjugated with fluorescein (Promega, Madison, Wis.). TUNEL staining was conducted by using TUNEL apoptosis detection kit (Upstate, Temecula, Calif.) except for using Streptavidin-Alexa Fluor 568 (Molecular Probes, Eugene, Oreg.) instead of Avidine-Rhodamine contained in the kit. Cell death was evaluated by dividing the number of TUNEL-positive cells among the cells positive with anti-GFP staining by the number of these GFP-positive cells.

[5] = system: PKCδ; assay: Immunocytochemistry of PKCδ cellular localization in 4T1 cells; assay type: cell-based, mouse; details: 4T1, 5 hrs; for nuclear staining for phosphor-PKCδ (Thr505): without Desferoxamine co-treatment
Protocol: (§5) Immunocytocheimstry: Cells were cultured on glass cover slips coated with poly-L-ornithine (Sigma, Saint Louis, Mo.). At 5 hrs after treatment with drugs, the cells were fixed with 10% formaldehyde in diluted in PBS (−) and washed with PBS (−) three times. After permeabilized by 0.2% Tryton X-100 and 1% goat serum diluted in PBS (−), the cells were blocked by PBS (−) containing 5% goat serum. The cells were then incubated with primary antibodies diluted in PBS (−) containing 0.5% bovine serum albumin (BSA), and with secondary antibodies, which is either anti-IgG conjugated with fluorescein (Vector Laboratories. Burlingame, Calif.), diluted in PBS (−) containing 0.5% BSA. The cells were observed through Zeiss fluorescent microscope (Carl Zeiss, Thornwood, N.Y.).

[6] = system: 4T1 cells; assay: TUNEL apoptosis assay in 4T1 cells; assay type: cell-based, mouse
Protocol: as §3, §4

[7] = system: HIF; assay: Western blotting of HIF in 4T1 cells; assay type: cell-based, mouse; details: 4T1, 5 hrs
Protocol: as §2

[8] = system: PDK-1/Akt pathway-related proteins; assay: Western blotting of PDK-1/Akt pathway-related proteins in 4T1 cells; assay type: cell-based, mouse; details: 4T1, 5 hrs after treatment, M4N 80 μM, Desferoxamine 75 or 150 μM
Protocol: as §2

[9] = system: LNCaP human prostate cancer cells; assay type: cell-based; details: for effect on TUNEL-positive cell death induced by M4N: 24 hrs
Protocol: as §3, §4

[10] = system: LNCaP tumors; assay: Nude mice orthotropically implanted with LNCaP tumors, about eight times tumor volume, treatment from day 3; assay type: in vivo, mouse
Protocol: Surgical orthotropic implantation of LNCaP tumors: LNCaP cells were grown as described above. Cells growing subconfluently were collected and resuspended into the tissue culture medium without fetal bovine serum and antibiotics. After counting the number of the cells, the cell concentration was adjusted using the same medium. After 20 μl of the medium containing a selected number of cancer cells (about 5×10^7 cells) had been mixed together with the same volume of Matrigel (BD science, Bedford, Mass.), the combined solution was injected into the skin of nude mice. […] The tumor tissue extracted from the skin was excised into pieces of about 2 mm diameter. After nude mice were anesthetized by 2,2,2-Tribromoethanol (Aldrich Chemical Co. Inc., Milwaukee, Wis.), a small incision was made at the abdomen of each mouse and a tumor tissue piece was implanted in the neighbor of the prostate of each mouse. Eight days after the operation, the injection of drugs was initiated, and the drugs were injected intravenously every day for the indicated periods
As in the previous experiment (FIGS. 9 to 13), in this study we administered M4N, Ly, Ro, Etoposide, or Rapamycin to mice intravenously using CPE (25/30) solvent system (87). […] However, in this experiment we implanted about eight times the volume of tumors as in the previous experiments to detect the difference of efficacy of various combination treatments much faster. We started to treat the mice with combination treatments three days after the implantation instead of eight days, considering that the tumor volume is already large at the time of implantation in this experiment. This allows less time for possible metastasis to the transplanted tumors in this experiment than in the previous one.

[11] = system: LNCaP human prostate cancer cells; assay: MTT cell growth assay in LNCaP cells; assay type: cell-based; details: 24 hrs, M4N 80 μM, Ro 5 μM, Ly 20 μM
Protocol: as §3
MTT assay: Cells were incubated in PBS (−) supplemented with 5% fetal calf serum and 0.5 mg/ml MTT, 3-(4,5-Dimethylthiazol-2-yl)-2,5-diphenyltetrazolium bromide (Sigma, Saint Louis, Mo.) for 2 hrs. After the incubation, the cells were dissolved in dimethyl sulfoxide and the color of the solutions was measured by a spectrophotometer at wavelengths of 540 and 690 nm. The values correlated with viable cell numbers were obtained by subtracting the optical density at 690 nm from that, at 540 nm.

[12] = system: 4T1 cells; assay: 4T1 tumor-bearing Balb/c mice (life-span, tumor size); assay type: in vivo, mouse; details: 5×10^4 cells, M4N 1 mg/shot, Rottlerin 100 μg/shot, three days a week from day 7
Protocol: (§6) Animals: Female Balb/e mice were obtained from Charles River Laboratories (Wilmington, Mass.). M4N and Rottlerin were dissolved into a solvent, CPE (25/30) solvent system supplied by Erimos Pharmaceutical, L.L.C. (Raleigh, N.C.) and injected into mice either intravenously or intraperitoneally, T-cell deficient male nude mice (nu/nu) were obtained from Charles River Laboratories (Wilmington, Mass.). M4N and Ly294002 were dissolved into a solvent, CPE (25/30) solvent system supplied by Erimos Pharmaceutical, L.L.C. (Raleigh, N.C.) and injected into mice intravenously.
(§7) Tumor inoculation: Either 4T1 or 67NR cells were grown as described above. Cells growing subconfluently were collected and resuspended into the tissue culture medium minus fetal bovine serum and antibiotics, After counting the number of the cells, the cell concentration was adjusted. Twenty μl of the solution containing a selected number of cancer cells (either 5×10^3 or 5×10^4 cells) was injected into each fat pad of a pair of mammary glands located close to lower limbs. Tumor size was measured by weighing tumors extracted from mouse cadavers.

[13] = system: PKCδ; assay: Immunocytochemistry of PKCδ cellular localization in LNCaP cells; assay type: cell-based, human; details: 5 hrs
Protocol: as §5

[14] = system: caspase-9; assay: Western blotting of caspase-9 cleavage in 67NR cells; assay type: cell-based, mouse; details: 5 hrs, Rottlerin 5 μM, M4N 80 μM
Protocol: as §2

[15] = system: mitochondrial membrane potential; assay: Mitochondrial membrane potential; assay type: cell-based
[16] = system: 67NR cells; assay: 67NR tumor-bearing Balb/c mice (life-span); assay type: in vivo, mouse; details: 5×10^4 cells, M4N 1 mg/shot, Rottlerin 100 μg/shot, three days a week from day 8
Protocol: as §6, §7

[17] = 26 hrs, with M4N 80 μM, Rottlerin 5 μM, Desferoxamine 150 μM
[18] = 4T1, 24 hrs, with M4N 80 μM, Rottlerin 5 μM, Desferoxamine 150 μM

Compound: CC(=O)N(O)CCCCCNC(=O)CCC(=O)N(O)CCCCCNC(=O)CCC(=O)N(O)CCCCCN.CS(=O)(=O)O [Desferoxamine, Desferoxamine mesylate]
- amount of phosphorylated PKCδ at Thr505 [1]: induced phosphorylation
- HIF stabilization [2]: induced HIF stabilization
- amount of phosphorylated PKCδ at Thr505 [3]: induced phosphorylation
- effect on cell death induced by M4N [4, 17]: generally augmented cell death even more
- effect on cell death induced by M4N ([4]; 48 hr, Desferoxamine 300 μM with M4N 80 μM): enhanced cell death induced by M4N
- cellular distribution / nuclear staining of total PKCδ [5]: did not modulate much nuclear staining
- nuclear staining for phosphor-PKCδ (Thr505) [5]: only moderately increased nuclear staining
- effect on cell death induced by M4N [6, 18]: generally augmented cell death even more
- effect on cell death induced by M4N ([6]; 4T1, 48 hr, Desferoxamine 300 μM with M4N 80 μM): enhanced cell death induced by M4N
- HIF stabilization [7]: induced HIF stabilization
- expression of phosphorylated PDK (Ser241), Akt (Ser473), PRAS40 (Thr246), Raf (Ser259), MEK (Ser217/221) [8]: not much effect

Compound: O=C([O-])C(Cl)Cl.[Na+] [Dichloroacetate, Sodium Dichloroacetate]
- effect on TUNEL-positive cell death induced by M4N [9]: synergistically augmented TUNEL-positive cell death induced by M4N

Compound: COc1cc([C@@H]2c3cc4c(cc3[C@@H](O[C@@H]3O[C@@H]5CO[C@@H](C)O[C@H]5[C@H](O)[C@H]3O)[C@H]3COC(=O)[C@H]23)OCO4)cc(OC)c1O [Etoposide]
- mice with lung metastasis lesions ([10]; combination groups at 80 days after tumor implantation): 3 out of 5
- time after implantation by which all mice died ([10]; mouse, in vivo): ≤ 24 days
- effect on TUNEL-positive cell death induced by M4N [9]: synergistically augmented TUNEL-positive cell death induced by M4N

Compound: O=c1c(-c2ccc(O)cc2)coc2cc(O)cc(O)c12 [Genistein]
- effect on TUNEL-positive cell death induced by M4N with either Ro or Ly ([6]; 4T1, Genistein 50 μM, 28 hrs): significantly suppressed the cell death

Compound: CC(=O)c1c(O)c(C)c(O)c(Cc2c(O)c3c(c(C(=O)/C=C/c4ccccc4)c2O)OC(C)(C)C=C3)c1O [Rottlerin]
- amount of phosphorylated PKCδ at Thr505 [1]: induced phosphorylation
- cell growth (MTT) [11]: suppressed cell growth to some extent
- life-span of 4T1-bearing mice [12]: didn't extend the life-span
- amount of phosphorylated PKCδ at Thr505 [3]: induced phosphorylation
- expression and nuclear level of total PKCδ [13]: Neither M4N, Ro, nor Ly treatment caused any remarkable change
- nuclear expression of phosphor-PKCδ (Thr507) [13]: augmented
- TUNEL-positive cell death with M4N in cells transfected with control vectors ([4]; 24 hrs, control vector): induced cell death synergistically with M4N
- TUNEL-positive cell death ([4]; 26 hrs, M4N 80 μM, Rottlerin 5 μM, Ly294002 20 μM): Neither Ro nor Ly alone induced TUNEL-positive cell death
- effect on cell death induced by M4N [4, 17]: enhanced to some extent cell death induced by M4N
- caspase-9 activation (cleavage) [14]: a small amount of caspase-9 is activated
- depolarization of mitochondrial membrane potential [15]: depolarized mitochondrial membrane potential
- TUNEL-positive cell death ([9]; 28 hrs, M4N 80 μM, Ro 5 μM, Ly 20 μM): has no effect
- effect on cell death induced by M4N ([9]; 28 hrs, with M4N 80 μM): synergistically augmented cell death induced by M4N
- cell death with M4N over a broad range of concentrations ([9]; different concentrations of drugs): induced cell death synergistically
- cytotoxicity alone ([9]; tissue culture): non-cytotoxic
- cellular distribution / nuclear staining of total PKCδ [5]: did not change much
- nuclear staining for phosphor-PKCδ (Thr505) [5]: augmented staining
- life-span of 67NR-bearing mice [16]: didn't have much effect on the life-span
- TUNEL-positive cell death ([6]; 4T1, 24 hrs, M4N 80 μM, Rottlerin 5 μM, Ly294002 20 μM): Neither Ro nor Ly alone induced TUNEL-positive cell death
- TUNEL-positive cell death with M4N in cells transfected with control vectors ([6]; 4T1, 24 hrs, control vector): induced cell death synergistically with M4N
- effect on cell death induced by M4N [6, 18]: greatly enhanced cell death induced by M4N

Compound: COC(=O)C[C@H](NC(=O)[C@H](C)NC(=O)[C@@H](NC(=O)OCc1ccccc1)C(C)C)C(=O)CF [zVAD, zVAD-fmk] (Cbz-Val-Ala-Asp(OMe)-CH2F)
- effect of pan-caspase inhibitor on drug-induced TUNEL-positive cell death ([4]; zVAD 50 μM, 42 hrs): didn't affect TUNEL-positive cell death
- effect of pan-caspase inhibitor on drug-induced TUNEL-positive cell death ([6]; 4T1, zVAD 50 μM added 30 minutes before other drugs): didn't affect TUNEL-positive cell death
